# Experiments:
# [1] = target: T1, human neuronal nAChR α4β2 (Homo sapiens, UniProt P17787+P43681); assay: similar functional assay in human epithelial cell line stably expressing human α4β2 subtype; format: cell-based; details: α7-nAChR against α4β2-nAChR
# T1 construct: expressed in transfected cells; host or cells: human epithelial cell line (named a human embryonic kidney cell line)
# Procedure: To assess the activity of the compound of the invention on the human neuronal nAChR α4β2, a similar functional assay is carried out using a human epithelial cell line stably expressing the human α4β2 subtype (Michelmore et al., Naunyn-Schmiedeberg's Arch. Pharmacol. (2002) 366, 235).
# parkinsonian primates = assay: Assessment of antidyskinetic effect in parkinsonian primates (MPTP, levodopa-induced dyskinesia); format: in vivo, cynomolgus monkeys (Macaca fascicularis); details: for Duration of Levodopa-Response / Mean Dyskinesia Score (total period): five MPTP monkeys
# Procedure: Female ovariectomized cynomolgus monkeys (Macaca fascicularis) are used in the assessment. The animals can be rendered parkinsonian by continuous infusion of 1-methyl-4-phenyl-1,2,3,6-tetrahydropyridine (MPTP) until they develop a stable parkinsonian syndrome. After recuperation, animals are treated daily with levodopa until clear and reproducible dyskinesias are developed.
# Monkeys are observed through a one-way screen window in their home cage. They are observed and scored repeatedly at baseline and after a standard s.c. dose of levodopa. Locomotor activity is assessed and followed with an electronic monitoring system. Antiparkinsonian responses are evaluated by measuring the locomotor activity and a Parkinson disability scale (see Hadj Tahar A et al, Clin Neuropharmacol 2000; 23:195-202; and Samadi P et al, Neuropharmacology 2003; 45:954-963). Dyskinesias are closely monitored and scored according to a dyskinesia rating scale (also described in Hadj Tahar A et al; and Samadi P et al) every 15 minutes until the end of the effect. The doses of levodopa are chosen to induce motor activation and reproducible dyskinesia but no excessive agitation.
# Monkeys are observed for at least two hours following an oral administration of vehicle. On a subsequent day, the dose of levodopa selected is tested once. The animals are observed (with measures of parkinsonian and dyskinetic scores) for the entire duration of the levodopa effect and are also monitored for locomotor activity. This provides vehicle control values as well as levodopa antiparkinsonian and dyskinesia response data for comparison with combinations of a α7-nAChR agonist/positive allosteric modulator and levodopa. The monkeys are then tested with a α7-nAChR agonist/positive allosteric modulator in combination with a fixed dose of levodopa. A suspension for oral administration of the α7-nAChR agonist/positive allosteric modulator is administered before levodopa. After each dose, the animals are observed (with measures of parkinsonian and dyskinetic scores) for the entire duration of effect and monitored for locomotor activity or any change in behavior (e.g. circling, excitement, lethargy and sleepiness).
# Using this protocol, compound A-1 at a dose of 20 mg/kg was tested. Results based on five monkeys (levodopa/benserazide doses: 22.5/50 mg; 65/50 mg; 30/50 mg; 35/50 mg; and 25/50 mg) are shown in FIGS. 1-4.
# [2] = Oral bioavailability and brain penetration in mice; format: in vivo; details: 30 μmol/kg p.o.
# Procedure: Compounds were orally (30 μmol/kg) administered. Male mice (30-35 g, OF1/ICstrain) were sacrificed at indicated time points after oral administration. Trunk-blood was collected in EDTA-containing tubes and the brain was removed and immediately frozen on dry ice.
# To 100 μl plasma 10 μl internal standard (1.0 μmol of a compound with solubility and ionization properties similar to test compounds) was added and extracted three times with 500 μl dichloromethane. The combined extracts were then dried under a stream of nitrogen and re-dissolved in 100 μl acetonitrile/water (70% acetonitrile). Brains were weighed and homogenized in water (1:5 w/v). Two 100 μl aliquots of each homogenate+10 μl of internal standard (same standard as used for the plasma samples) were extracted three times with 500 μl dichloromethane and further processed as the plasma samples. Samples were separated on Beckmann high-performance liquid chromatography equipment system with an autosampler (Gilson 233XL).
# The limit of detection (LOD), defined as the lowest concentration of the extracted standard sample with a signal to noise ratio of ˜3.
# human α7-nAChR = target: T2, human α7-nAChR (Homo sapiens, UniProt P36544); assay: functional assay, calcium influx (FLIPR) in GH3 cells recombinantly expressing human α7-nAChR; format: cell-based; details: for α7-nAChR activity Efficacy compared to epibatidine (100%): Emax, maximal effect compared to the epibatidine response
# T2 construct: expressed in transfected cells; host or cells: GH3 cells (rat pituitary cell line)
# Procedure: To assess α7-nAChR activity, a functional assay was employed using GH3 cells that recombinantly expressed human α7-nAChR. 50000 cells per well were seeded 72 h prior to the experiment on black 96-well plates (Costar) and incubated at 37° C. in a humidified atmosphere (5% CO2/95% air). On the day of the experiment, medium was removed by flicking the plates and replaced with 100 μl growth medium containing […] Fluo-4, (Molecular Probes) in the presence of 2.5 mM probenecid (Sigma). The cells were incubated at 37° C. in a humidified atmosphere (5% CO2/95% air) for 1 h. Plates were flicked to remove excess of Fluo-4, washed twice with Hepes-buffered salt solution (in mM: NaCl 130, KCl 5.4, CaCl2 2, MgSO4 0.8, NaH2PO4 0.9, glucose 25, Hepes 20, pH 7.4; HBS) and refilled with 100 μl of HBS containing antagonist when appropriate. The incubation in the presence of the antagonist lasted 3-5 minutes. Plates were placed in the cell plate stage of a FLIPR device (fluorescent imaging plate reader, Molecular Devices, Sunnyvale, Calif., USA). After recording of the baseline (laser: excitation 488 nm at 1 W, CCD camera opening of 0.4 seconds) the agonists (50 μl) were added to the cell plate using the FLIPR 96-tip pipettor while simultaneously recording the fluorescence.
# Calcium kinetic data were normalized to the maximal fitted response induced by epibatidine, which is a full agonist at α7-nAChR. Four parameter Hill equations were fitted to the concentration-response. Values of Emax (maximal effect in % compared to the epibatidine response) and EC50 (concentration producing half the maximal effect in μM) were derived from this fit.
# mice = assay: Social Recognition Test in mice; format: in vivo, mouse; details: oral, familiar partner at 24 h vs time 0
# Procedure: Social interactions between two experimental animals are influenced by their degree of familiarity: the better they know each other, the less time they spend on mutual scrutiny at each meeting. […] Memory enhancing agents (i.e. oxiracetam) facilitate learning to the extent that the previously met (familiar) partner is still remembered after 24 h, whereas in vehicle treated control animals the memory usually fades after less than 1 hour (Thor and Holloway, 1982) or after 2-3 hours.
# Pairs consisting of one adult and one young mouse were assigned at random to the experimental and control groups. In each pair only the adult mouse was orally treated 1 hour before the trial with either vehicle or the test compound. The duration of active contacts of the adult mouse with the young mouse was manually recorded over a period of 3 min, including the following behavioural, approach-related items: sniffing, nosing, grooming, licking, pawing and playing, anogenital exploration and orientation toward the young mouse; orientation, thereby, was defined as tip of nose of the adult mouse less than approximately 1 cm distant from the young mouse's body.
# Twenty-four hours after the baseline-test, the adults in each treatment group were confronted again with […] the half of the adult animals were put together with the previously encountered (familiar) partner and the other half with another (unfamiliar) young mouse. Again the duration of active approach-behaviours was recorded during a 3-min period. Prior to re-test no oral injection was given.
# In the table the reduction in time scrutinizing the familiar partner at time 24 compared with the familiar partner at time 0 minutes is given (value of zero would signify no reduction).
# [3] = MPTP monkeys, A-1 20 mg/kg plus levodopa/benserazide, result in words
# [4] = compound A-1 20 mg/kg oral before levodopa/benserazide
# [5] = levodopa/benserazide without compound A-1
# T2 sequence (P36544 23-502): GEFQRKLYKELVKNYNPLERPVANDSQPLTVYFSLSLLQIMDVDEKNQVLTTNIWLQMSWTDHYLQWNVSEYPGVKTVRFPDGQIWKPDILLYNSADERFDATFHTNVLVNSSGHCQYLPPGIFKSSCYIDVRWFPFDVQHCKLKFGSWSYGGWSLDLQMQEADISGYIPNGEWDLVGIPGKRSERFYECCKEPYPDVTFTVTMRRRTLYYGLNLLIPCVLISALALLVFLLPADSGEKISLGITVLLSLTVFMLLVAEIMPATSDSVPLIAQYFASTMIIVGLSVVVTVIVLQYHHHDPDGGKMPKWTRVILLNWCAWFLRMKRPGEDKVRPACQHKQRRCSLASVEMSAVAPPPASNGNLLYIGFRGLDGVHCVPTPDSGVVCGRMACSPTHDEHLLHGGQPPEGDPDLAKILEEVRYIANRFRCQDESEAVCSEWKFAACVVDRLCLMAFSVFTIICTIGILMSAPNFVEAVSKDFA
# T1 sequence (P43681 29-627 limits assumed): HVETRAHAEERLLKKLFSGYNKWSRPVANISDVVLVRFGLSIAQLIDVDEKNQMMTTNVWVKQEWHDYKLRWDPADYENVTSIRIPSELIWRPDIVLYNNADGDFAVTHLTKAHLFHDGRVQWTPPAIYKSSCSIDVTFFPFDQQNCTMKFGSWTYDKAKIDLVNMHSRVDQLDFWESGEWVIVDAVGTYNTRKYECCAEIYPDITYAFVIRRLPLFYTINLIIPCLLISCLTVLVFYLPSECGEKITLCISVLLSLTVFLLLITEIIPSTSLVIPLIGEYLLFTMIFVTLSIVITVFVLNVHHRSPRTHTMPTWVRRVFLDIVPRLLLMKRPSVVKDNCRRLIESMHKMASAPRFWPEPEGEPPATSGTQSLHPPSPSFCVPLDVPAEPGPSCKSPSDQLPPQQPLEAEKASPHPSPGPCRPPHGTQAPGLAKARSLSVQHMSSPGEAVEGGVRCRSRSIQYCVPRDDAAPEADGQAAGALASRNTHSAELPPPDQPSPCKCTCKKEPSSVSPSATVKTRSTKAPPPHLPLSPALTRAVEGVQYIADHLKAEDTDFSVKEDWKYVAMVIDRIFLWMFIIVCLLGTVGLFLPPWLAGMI
# T1 sequence (P17787 26-502): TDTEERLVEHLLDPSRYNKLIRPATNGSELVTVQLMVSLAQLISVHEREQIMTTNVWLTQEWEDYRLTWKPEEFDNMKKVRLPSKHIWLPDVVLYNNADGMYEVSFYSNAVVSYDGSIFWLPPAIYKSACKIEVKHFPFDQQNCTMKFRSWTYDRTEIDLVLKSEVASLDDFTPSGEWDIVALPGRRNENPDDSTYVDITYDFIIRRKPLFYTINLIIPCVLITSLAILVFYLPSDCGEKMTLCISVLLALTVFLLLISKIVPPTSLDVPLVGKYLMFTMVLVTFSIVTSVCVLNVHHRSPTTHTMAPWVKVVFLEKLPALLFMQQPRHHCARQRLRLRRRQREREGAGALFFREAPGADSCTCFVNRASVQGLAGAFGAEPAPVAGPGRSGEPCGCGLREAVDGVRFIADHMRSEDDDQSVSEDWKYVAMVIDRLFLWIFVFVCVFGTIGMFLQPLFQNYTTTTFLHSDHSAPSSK
smiles,measurement,setting,value
"C[C@H](OC(=O)N[C@@H]1CN2CCC1CC2)c1ccccc1F [A-1, (S)-(1-aza-bicyclo[2.2.2]oct-3-yl)-carbamic acid (S)-1-(2-fluoro-phenyl)-ethyl ester]",fold selectivity,[1],234 fold
same,antiparkinsonian activity of levodopa (antiparkinsonian score),parkinsonian primates; [3],does not lower
same,duration of the antiparkinsonian activity of levodopa,parkinsonian primates; [3],significantly increases
same,levodopa-induced dyskinesias,parkinsonian primates; [3],significantly reduces
same,onset of action of levodopa (Elapsed Time after Levodopa Administration),parkinsonian primates; [3],does not delay
same,Duration of Levodopa-Response,parkinsonian primates; [4],265 min
same,Mean Dyskinesia Score (total period),parkinsonian primates; [4],2.1
same,Brain (pmoles/g ± SD),[2]; 0.5 hour,706.3 ± 153.4 pmol/g
same,Brain (pmoles/g ± SD),[2]; 1 hour,573.7 ± 109.3 pmol/g
same,Brain (pmoles/g ± SD),[2]; 2 hour,191.9 ± 34.9 pmol/g
same,Brain (pmoles/g ± SD),[2]; 4 hour,104.6 ± 39.6 pmol/g
same,Brain (pmoles/g ± SD),[2]; 6 hour,40.5 ± 12.1 pmol/g
same,Brain (pmoles/g ± SD),[2]; 24 hour,9.1 ± 2.7 pmol/g
same,α7-nAChR activity Efficacy compared to epibatidine (100%),human α7-nAChR,83%
same,EC50,human α7-nAChR; read-out: α7-nAChR activity Potency EC50,100 nM
same,Reduction in time scrutinizing in % ± SEM at 24 h,mice; dose 3 mg/kg,52 ± 4%
"C[C@H]1[C@H](Oc2ccc(-c3ccc4[nH]ccc4c3)nn2)C2CCN1CC2 [B-13, (2S,3R)-3-[6-(1H-indol-5-yl)-pyridazin-3-yloxy]-2-methyl-1-aza-bicyclo[2.2.2]octane]",fold selectivity,[1],324 fold
same,Brain (pmoles/g ± SD),[2]; 0.25 hour,1884 ± 291 pmol/g
same,Plasma (pmoles/ml ± SD),[2]; 0.25 hour,2196 ± 397 pmol/mL
same,Brain (pmoles/g ± SD),[2]; 0.5 hour,2960 ± 706 pmol/g
same,Plasma (pmoles/ml ± SD),[2]; 0.5 hour,2265 ± 419 pmol/mL
same,Brain (pmoles/g ± SD),[2]; 1 hour,2940 ± 335 pmol/g
same,Plasma (pmoles/ml ± SD),[2]; 1 hour,1554 ± 523 pmol/mL
same,Brain (pmoles/g ± SD),[2]; 2 hour,1260 ± 172 pmol/g
same,Plasma (pmoles/ml ± SD),[2]; 2 hour,1172 ± 252 pmol/mL
same,Brain (pmoles/g ± SD),[2]; 4 hour,379 ± 134 pmol/g
same,Plasma (pmoles/ml ± SD),[2]; 4 hour,429 ± 167 pmol/mL
same,Brain (pmoles/g ± SD),[2]; 8 hour,93 ± 30 pmol/g
same,Plasma (pmoles/ml ± SD),[2]; 8 hour,80 ± 23 pmol/mL
same,Brain (pmoles/g ± SD),[2]; 24 hour,13 ± 4 pmol/g
same,α7-nAChR activity Efficacy compared to epibatidine (100%),human α7-nAChR,89%
same,Reduction in time scrutinizing in % ± SEM at 24 h,mice; dose 0.3 mg/kg,37 ± 7%
"c1cc2cc(-c3cnc(O[C@H]4CCN5CCC[C@@H]4C5)nc3)ccc2[nH]1 [C-1, (4S,5R)-4-[5-(1H-indol-5-yl)-pyrimidin-2-yloxy]-1-aza-bicyclo[3.3.1]nonane]",fold selectivity,[1],388 fold
same,Brain (pmoles/g ± SD),[2]; 0.25 hour,620 ± 221 pmol/g
same,Brain (pmoles/g ± SD),[2]; 0.5 hour,1405 ± 539 pmol/g
same,Brain (pmoles/g ± SD),[2]; 1 hour,1458 ± 189 pmol/g
same,Brain (pmoles/g ± SD),[2]; 2 hour,1478 ± 259 pmol/g
same,Brain (pmoles/g ± SD),[2]; 4 hour,842 ± 187 pmol/g
same,Brain (pmoles/g ± SD),[2]; 8 hour,362 ± 62 pmol/g
same,α7-nAChR activity Efficacy compared to epibatidine (100%),human α7-nAChR,84%
same,Reduction in time scrutinizing in % ± SEM at 24 h,mice; dose 0.3 mg/kg,51 ± 3%
"N[C@@H](Cc1ccc(O)c(O)c1)C(=O)O [levodopa, reference compound]",Duration of Levodopa-Response,parkinsonian primates; [5],230 min
same,Mean Dyskinesia Score (total period),parkinsonian primates; [5],2.8
